In article PMC6792352, “Limited Chemical Structural Diversity Found to Modulate Thyroid Hormone Receptor in the Tox21 Chemical Library” (Environmental Health Perspectives, 2019) one finds CC50 data, which are given here for 31 compounds.

One data set can be described thus: in vitro. To be noted: rat, gh3-tre-luc cells, AC50 (uM) modified / 1000.
Another data set has as its system GH3-TRE-Luc cell line. To be noted: read-out: AC50 (uM) modified / 1000, viability, 1 nM T3 present, 24 h.

Structures can show the parent of a compound that is named as a salt. Where two headings read alike, the source gives them in different places.

In “in vitro”, `COC1=CC(=O)C[C@@H](C)[C@]12Oc1c(Cl)c(OC)cc(OC)c1C2=O` [Griseofulvin] displayed a CC50 at 24 h above 90 µM. Also, the CC50 in the data set with GH3-TRE-Luc cell line (Tox21_110001=Tox21_303005) amounted to 49.1 µM.

For the compound `Cc1ccc(/C=C2/C(=O)C3(C)CCC2C3(C)C)cc1` (stereo not drawn) [Enzacamene], the CC50 at 24 h in “in vitro” is above 90 µM. The CC50 in the data set with GH3-TRE-Luc cell line (Tox21_110001=Tox21_112423) amounted to 46.5 µM.

In “in vitro”, `Nc1ccc(O)c(N)c1` [2,4-Diaminophenol dihydrochloride] had a CC50 at 24 h of 41.5 µM. For the same compound, the CC50 in the data set on GH3-TRE-Luc cell line (Tox21_110001=Tox21_303017) was determined as 45.5 µM.

As for `O=C(Nc1ccc([N+](=O)[O-])cc1Cl)c1cc(Cl)ccc1O` [Niclosamide], in “in vitro”, the CC50 at 24 h was determined as 0.487 µM. For the same compound, the CC50 in the data set with GH3-TRE-Luc cell line (Tox21_110001=Tox21_110209) was 0.618 µM.

`CCc1cc(C(C)(C)C)c(O)c(C(C)(C)C)c1` [2,6-Di-tert-butyl-4-ethylphenol] had a CC50 at 24 h in “in vitro” of 72.5 µM. Further, the CC50 in the data set on GH3-TRE-Luc cell line (Tox21_110001=Tox21_303397) is 85.5 µM.

With `CCN(CC)CCSC(=O)C(c1ccccc1)c1ccccc1` [Thiphenamil], the CC50 at 24 h in the data set “in vitro” amounted to 41 µM. Besides, the CC50 with GH3-TRE-Luc cell line (Tox21_110001=Tox21_111676) was determined as 30.2 µM.

Consider `CO/N=C1\C[C@]2(C[C@@H]3C[C@@H](C/C=C(\C)C[C@@H](C)/C=C/C=C4\CO[C@@H]5[C@H](O)C(C)=C[C@@H](C(=O)O3)[C@]45O)O2)O[C@H](/C(C)=C/C(C)C)[C@H]1C` [Moxidectin], for which the CC50 at 24 h in the data set “in vitro” was found to be 5.14 µM. The CC50 in the data set with GH3-TRE-Luc cell line (Tox21_110001=Tox21_113093) stood at 4.45 µM.

In the data set “in vitro”, `CC(=O)[C@]1(O)Cc2c(O)c3c(c(O)c2[C@@H](O[C@H]2C[C@H](N)[C@H](O)[C@H](C)O2)C1)C(=O)c1c(O)cccc1C3=O` [Carminomycin] registered a CC50 at 24 h of 0.177 µM. Moreover, in the data set on GH3-TRE-Luc cell line (Tox21_110001=Tox21_111978), the CC50 was found to be 0.212 µM.

`Cc1c(C)c2c(c(C)c1O)CCC(C)(COc1ccc(CC3SC(=O)NC3=O)cc1)O2` (stereo not drawn) [Troglitazone] registered a CC50 at 24 h in “in vitro” of 54.8 µM. The CC50 in the data set with GH3-TRE-Luc cell line (Tox21_110001=Tox21_112119) was 41.3 µM.

For the compound `N#C/C(=C1/SC[C@@H](c2ccc(Cl)cc2Cl)S1)n1ccnc1` [Luliconazole], in “in vitro”, the CC50 at 24 h is above 50 µM. Moreover, the CC50 in the data set with GH3-TRE-Luc cell line (Tox21_110001=Tox21_112974) was 40.6 µM.

`CC1(C)[C@@H](O)CC[C@]2(C)[C@H]3C(=O)C=C4[C@@H]5C[C@@](C)(C(=O)O)CC[C@]5(C)CC[C@@]4(C)[C@]3(C)CC[C@@H]12` [Glycyrrhetinic acid]: the CC50 at 24 h in “in vitro” was 28 µM. The results for the CC50 with GH3-TRE-Luc cell line (Tox21_110001=Tox21_110804) and in the data set on GH3-TRE-Luc cell line (Tox21_110001=Tox21_112726) were 24.8 µM and 19.8 µM, respectively.

For `Clc1ccccc1C(c1ccccc1)(c1ccccc1)n1ccnc1` [Clotrimazole], the CC50 at 24 h in “in vitro” came out at 5.21 µM. In addition, the CC50 in the data set with GH3-TRE-Luc cell line (Tox21_110001=Tox21_110111) turned out to be 8.57 µM.

For `CN(C)CCC(c1ccc(Cl)cc1)c1ccccn1` (stereo not drawn) [Chlorpheniramine maleate], the CC50 at 24 h in “in vitro” was 40.4 µM. The CC50 with GH3-TRE-Luc cell line (Tox21_110001=Tox21_303456) came out at 41.3 µM.

On to `Cc1cc(C(C)(C)CC(C)(C)C)ccc1OCCOCC[N+](C)(C)Cc1ccccc1` [Methylbenzethonium chloride], for which the CC50 at 24 h in “in vitro” was found to be 9.38 µM. Further, the CC50 in the data set on GH3-TRE-Luc cell line (Tox21_110001=Tox21_301446) was 7.92 µM.

`COc1cc2c(c(OC)c1OC)-c1c(cc3c(c1OC)OCO3)C[C@H](C)[C@](C)(O)C2` [Gomisin A]: the CC50 with GH3-TRE-Luc cell line (Tox21_110001=Tox21_113433) came to 22.9 µM.

As to `C=C1C(CCl)(CCl)C2(Cl)C(Cl)C(Cl)C1(Cl)C2(Cl)Cl` (stereo not drawn) [Toxaphene], the CC50 in the data set on GH3-TRE-Luc cell line (Tox21_110001=Tox21_111173) was 5.43 µM; in the data set with GH3-TRE-Luc cell line (Tox21_110001=Tox21_200912) it was 23.5 µM.

As for `CCCCCCCC[n+]1ccn(C)c1` [1-Methyl-3-octylimidazolium tetrafluoroborate], in the data set with GH3-TRE-Luc cell line (Tox21_110001=Tox21_200695), the CC50 was 44.3 µM.

Turning to `CCCCCCCCCCn1cc[n+](C)c1` [1-Decyl-3-methylimidazolium chloride], the CC50 in the data set with GH3-TRE-Luc cell line (Tox21_110001=Tox21_202623) amounted to 22.3 µM.

In the case of `CCN(CC)C(=S)S` [Sodium diethyldithiocarbamate trihydrate], the CC50 in the data set on GH3-TRE-Luc cell line (Tox21_110001=Tox21_302812) was 8.88 µM.

In the case of `COc1cccc2c1C(=O)c1c(O)c3c(c(O)c1C2=O)C[C@@](O)(C(=O)CO)C[C@@H]3O[C@H]1C[C@H](N)[C@H](O)[C@H](C)O1` [Adriamycin hydrochloride], the CC50 in the data set with GH3-TRE-Luc cell line (Tox21_110001=Tox21_112061) came to 1.54 µM; in the data set with GH3-TRE-Luc cell line (Tox21_110001=Tox21_202483) it was 0.253 µM.

With `[H]/N=C(\N/C(=N/[H])NCCCCCCNC(=N)NC(=N)Nc1ccc(Cl)cc1)Nc1ccc(Cl)cc1` [Chlorhexidine], the figures for the CC50 in the data set with GH3-TRE-Luc cell line (Tox21_110001=Tox21_110325), with GH3-TRE-Luc cell line (Tox21_110001=Tox21_201404) and in the data set with GH3-TRE-Luc cell line (Tox21_110001=Tox21_303445) were 12.4 µM, 7.06 µM and 6.48 µM, respectively.

As for `O=S(=O)(O)c1ccc2c(N=Nc3ccc(S(=O)(=O)O)c4ccccc34)c(O)c(S(=O)(=O)O)cc2c1` [Amaranth], in the data set with GH3-TRE-Luc cell line (Tox21_110001=Tox21_112280), the CC50 was found to be 19.3 µM.

As to `O=S1(=O)OC(c2ccc(O)cc2)(c2ccc(O)cc2)c2ccccc21` [Phenol red], the CC50 with GH3-TRE-Luc cell line (Tox21_110001=Tox21_303570) was 79.8 µM.

As for `O=C(c1ccc(OCCN2CCCCC2)cc1)c1c(-c2ccc(O)cc2)sc2cc(O)ccc12` [Raloxifene hydrochloride], the CC50 worked out at 5.6 µM with GH3-TRE-Luc cell line (Tox21_110001=Tox21_110255) and 2.98 µM in the data set on GH3-TRE-Luc cell line (Tox21_110001=Tox21_302369).

Consider `CC(CN1c2ccccc2Sc2ccccc21)N(C)C` (stereo not drawn) [Promethazine], for which the CC50 in the data set with GH3-TRE-Luc cell line (Tox21_110001=Tox21_110227) amounted to 17.9 µM.

For the compound `CCCCCCCCCCCCCC[P+](CCCCCC)(CCCCCC)CCCCCC` [Trihexyltetradecylphosphonium hexafluorophosphate], the CC50 in the data set on GH3-TRE-Luc cell line (Tox21_110001=Tox21_200750) came out at 5.33 µM.

Take `CC(=O)O[C@@]12CO[C@@H]1C[C@H](O)[C@@]1(C)C(=O)[C@H](O)C3=C(C)[C@@H](OC(=O)[C@H](O)[C@@H](NC(=O)OC(C)(C)C)c4ccccc4)C[C@@](O)([C@@H](OC(=O)c4ccccc4)[C@H]21)C3(C)C` [Docetaxel]: the CC50 came out at 0.0619 µM in the data set on GH3-TRE-Luc cell line (Tox21_110001=Tox21_112781) and 0.364 µM in the data set on GH3-TRE-Luc cell line (Tox21_110001=Tox21_113088).

Take `COC(=O)Nc1nc2ccccc2[nH]1` [Carbendazim]: the CC50 in the data set with GH3-TRE-Luc cell line (Tox21_110001=Tox21_300478) came to 11.4 µM.

As for `CO[C@H]1C[C@@H]2CC[C@@H](C)[C@@](O)(O2)C(=O)C(=O)N2CCCC[C@H]2C(=O)O[C@H]([C@H](C)C[C@@H]2CC[C@@H](O)[C@H](OC)C2)CC(=O)[C@H](C)/C=C(\C)[C@@H](O)[C@@H](OC)C(=O)[C@H](C)C[C@H](C)/C=C/C=C/C=C/1C` [Sirolimus], the CC50 with GH3-TRE-Luc cell line (Tox21_110001=Tox21_110870) is 0.00123 µM; in the data set on GH3-TRE-Luc cell line (Tox21_110001=Tox21_112750), 0.00263 µM.

With `CCCCCCCCCCCCCC[N+](C)(C)C` [Tetradonium bromide], the CC50 with GH3-TRE-Luc cell line (Tox21_110001=Tox21_112327) came out at 5.04 µM; with GH3-TRE-Luc cell line (Tox21_110001=Tox21_302067) it was 8.21 µM.

As for `CSc1ccc2c(c1)N(CCC1CCCCN1C)c1ccccc1S2` (stereo not drawn) [Thioridazine], in the data set with GH3-TRE-Luc cell line (Tox21_110001=Tox21_110294), the CC50 was found to be 6.53 µM.
